Assay results from patent US4001218A, “Penicillins” (Bayer Aktiengesellschaft, priority 1972, dated 1977).

Key:
Klebsiella 62 = assay: animal experiment, Klebsiella 62 infection; details: s.c. 2 × 3000 Units per animal, experiment with Ex.1
Psdm. aerug. F 41 [1] = assay: animal experiment, Psdm. aerug. F 41 infection; details: s.c. 4 × 3000 Units per animal
Klebsiella 63 [2] = assay: animal experiment, Klebsiella 63 infection; details: s.c. 2 × 3000 Units per animal
[3] = tested on: Bordetella bronchiseptica; assay: turbidity test at 100 μg/ml; assay type: cell-based; details: 24 hours
Klebsiella 63 [4] = assay: turbidity test at 100 μg/ml; assay type: cell-based; details: 24 hours
Klebsiella 63 [5] = assay: MIC, test tube series dilution test, Klebsiella 63; assay type: cell-based; details: Klebsiella 63; 24 hours, 37°C
Proteus morg. 932 = assay: MIC, test tube series dilution test, Proteus morg. 932; assay type: cell-based; details: 24 hours, 37°C
[6] = tested on: Pasteurella pseudotuberculosis; assay type: cell-based; details: 100 μg/ml, 24 hours
Psdm. aerug. Walter = assay: MIC, test tube series dilution test, Psdm. aerug. Walter; assay type: cell-based, Pseudomonas aeruginosa; details: Psdm. aerug. Walter; 24 hours, 37°C
Clostridium tetani = assay type: cell-based; details: 100 μg/ml, 24 hours
Staph. aureus 133 = assay type: cell-based, Staphylococcus aureus; details: Staph. aureus 133; 24 hours, 37°C
[7] = tested on: Proteus, indole-positive, sp.; assay: turbidity test at 100 μg/ml; assay type: cell-based; details: 24 hours
E. Coli c165 = assay: turbidity test at 100 μg/ml; assay type: cell-based; details: 24 hours
Proteus vulg. 1017 = assay type: cell-based, Proteus vulgaris; details: Proteus 1017; 24 hours, 37°C
Brucella sp. = assay type: cell-based; details: 100 μg/ml, 24 hours
Enterococcus sp. = assay: turbidity test at 100 μg/ml; assay type: cell-based; details: 24 hours
Lactobacillus sp. = assay: turbidity test at 100 μg/ml; assay type: cell-based; details: 24 hours
[8] = tested on: Staphylococcus aureus 133; assay: turbidity test at 100 μg/ml; assay type: cell-based; details: 24 hours
E. coli 183/58 = assay: MIC, test tube series dilution test, E. coli 183/58; assay type: cell-based; details: 24 hours, 37°C
E. coli A 261 = assay: MIC, test tube series dilution test, E. coli A 261; assay type: cell-based; details: 24 hours, 37°C
Haemophilus influenzae = assay: turbidity test at 100 μg/ml; assay type: cell-based; details: 24 hours
Bacteroides sp. = assay: turbidity test at 100 μg/ml; assay type: cell-based; details: 24 hours
E. coli C 165 = assay: MIC, test tube series dilution test, E. coli C 165; assay type: cell-based; details: 24 hours, 37°C
E. coli 14 [9] = assay type: cell-based; details: E. coli 14; 24 hours, 37°C
[10] = tested on: Pseudomonas aeruginosa sp.; assay: turbidity test at 100 μg/ml; assay type: cell-based; details: 24 hours
[11] = tested on: Diplococcus pneumoniae sp.; assay: turbidity test at 100 μg/ml; assay type: cell-based; details: 24 hours
Klebsiella K 10 [12] = assay: turbidity test at 100 μg/ml; assay type: cell-based; details: 24 hours
Serratia sp. = assay: turbidity test at 100 μg/ml; assay type: cell-based; details: 24 hours
[13] = tested on: Neisseria cartarrhalis sp.; assay: turbidity test at 100 μg/ml; assay type: cell-based; details: 24 hours
Shigella sp. = assay: turbidity test at 100 μg/ml; assay type: cell-based
Proteus vulgaris 1017 = assay: turbidity test at 100 μg/ml; assay type: cell-based; details: 24 hours
Enterococcus 9790 = assay: MIC, test tube series dilution test, Enterococcus 9790; assay type: cell-based; details: 24 hours, 37°C
[14] = tested on: Corynebacterium pyogenes M; assay: turbidity test at 100 μg/ml; assay type: cell-based; details: 24 hours
[15] = tested on: Proteus, indole-negative, sp.; assay: turbidity test at 100 μg/ml; assay type: cell-based; details: 24 hours
Clostridium botulinium = assay type: cell-based
E. coli 14 [16] = assay: turbidity test at 100 μg/ml; assay type: cell-based; details: 24 hours
Klebsiella K 10 [17] = assay: MIC, test tube series dilution test, Klebsiella K 10; assay type: cell-based; details: 24 hours, 37°C
Streptococcus pyogenes W = assay: turbidity test at 100 μg/ml; assay type: cell-based; details: 24 hours
Borrelia sp. = assay: turbidity test at 100 μg/ml; assay type: cell-based; details: 24 hours
Enterobacter sp. = assay: turbidity test at 100 μg/ml; assay type: cell-based; details: 24 hours
Psdm. aerug. F 41 [18] = assay: MIC, test tube series dilution test, Psdm. aerug. F 41; assay type: cell-based, Pseudomonas aeruginosa; details: Psdm. aerug. F 41; 24 hours, 37°C
Staph. aureus 1756 = assay: MIC, test tube series dilution test, Staph. aureus 1756; assay type: cell-based, Staphylococcus aureus; details: Staph. aureus 1756; 24 hours, 37°C
Aeromonas hydrophila sp. = assay: turbidity test at 100 μg/ml; assay type: cell-based; details: 24 hours
Salmonella sp. = assay: turbidity test at 100 μg/ml; assay type: cell-based
[19] = tested on: Corynebacterium diphteriae gravis; assay: turbidity test at 100 μg/ml; assay type: cell-based; details: 24 hours
[20] = 1st day after infection, experiment with Ex.29
[21] = 2nd day after infection, experiment with Ex.29
[22] = 3rd day after infection, experiment with Ex.29
[23] = 5th day after infection, experiment with Ex.29
[24] = 1st day after infection, experiment with Ex.41
[25] = 1st day after infection, experiment with Ex.7

## CC1(C)S[C@@H]2[C@H](NC(=O)C(C(=O)O)c3ccccc3)C(=O)N2[C@H]1C(=O)O (some centres unmarked) [Carbenicillin, reference compound]
Klebsiella 62; 1st day after infection
  Surviving animals: 0%
Psdm. aerug. F 41 [1]; 1st day after infection, experiment with Ex.22
  Surviving animals: 50%
Psdm. aerug. F 41 [1]; [20]
  Surviving animals: 80%
Psdm. aerug. F 41 [1]; 2nd day after infection, experiment with Ex.22
  Surviving animals: 0%
Psdm. aerug. F 41 [1]; [21]
  Surviving animals: 30%
Psdm. aerug. F 41 [1]; [22]
  Surviving animals: 30%
Psdm. aerug. F 41 [1]; [23]
  Surviving animals: 20%
Klebsiella 63 [2]; [24]
  Surviving animals: 0%
Klebsiella 63 [2]; [25]
  Surviving animals: 0%

## CC1(C)S[C@@H]2[C@H](NC(=O)[C@H](NC(=O)c3ccc(NC(=O)C4CC4)cc3)c3ccccc3)C(=O)N2[C@H]1C(=O)O [Example 1, sodium D(-)-α-(4-cyclopropanecarbonylamino-benzoylamino)-benzylpenicillin]
[3]
  degree of turbidity: non-turbid
Klebsiella 63 [4]
  degree of turbidity: non-turbid
Klebsiella 63 [5]
  MIC: 64 U/ml
Proteus morg. 932
  MIC: 8 U/ml
[6]
  degree of turbidity: non-turbid
Psdm. aerug. Walter
  MIC: 16 U/ml
Klebsiella 62; 1st day after infection
  Surviving animals: 100%
Klebsiella 62; 2nd day after infection
  Surviving animals: 100%
Klebsiella 62; 3rd day after infection
  Surviving animals: 50%
Klebsiella 62; 5th day after infection
  Surviving animals: 50%
Clostridium tetani
  degree of turbidity: non-turbid
Staph. aureus 133
  MIC: < 1 U/ml
[7]
  degree of turbidity: non-turbid
E. Coli c165
  degree of turbidity: non-turbid
Proteus vulg. 1017
  MIC: < 32 U/ml
Brucella sp.
  degree of turbidity: non-turbid
Enterococcus sp.
  degree of turbidity: non-turbid
Lactobacillus sp.
  degree of turbidity: non-turbid
[8]
  degree of turbidity: non-turbid
E. coli 183/58
  MIC: 16 U/ml
E. coli A 261
  MIC: > 256 U/ml
Haemophilus influenzae
  degree of turbidity: non-turbid
Bacteroides sp.
  degree of turbidity: non-turbid
E. coli C 165
  MIC: 16 U/ml
E. coli 14 [9]
  MIC: 4 U/ml
[10]
  degree of turbidity: non-turbid
[11]
  degree of turbidity: non-turbid
Klebsiella K 10 [12]
  degree of turbidity: non-turbid
Serratia sp.
  degree of turbidity: non-turbid
[13]
  degree of turbidity: non-turbid
Shigella sp.
  degree of turbidity: non-turbid
Proteus vulgaris 1017
  degree of turbidity: non-turbid
Enterococcus 9790
  MIC: ~ 8 U/ml
[14]
  degree of turbidity: non-turbid
[15]
  degree of turbidity: non-turbid
Clostridium botulinium
  degree of turbidity: non-turbid
E. coli 14 [16]
  degree of turbidity: non-turbid
Klebsiella K 10 [17]
  MIC: 64 U/ml
Streptococcus pyogenes W
  degree of turbidity: non-turbid
Borrelia sp.
  degree of turbidity: non-turbid
Enterobacter sp.
  degree of turbidity: non-turbid
Psdm. aerug. F 41 [18]
  MIC: 32 U/ml
Staph. aureus 1756
  MIC: 64 U/ml
Aeromonas hydrophila sp.
  degree of turbidity: non-turbid
Salmonella sp.
  degree of turbidity: non-turbid
[19]
  degree of turbidity: non-turbid

## CC1(C)S[C@@H]2[C@H](NC(=O)[C@H](NC(=O)c3ccc(NC(=O)C4CCCC4)cc3)c3ccccc3)C(=O)N2[C@H]1C(=O)O [Example 7, sodium D(-)-α-(4-cyclopentanecarbonylamino-benzoylamino)-benzylpenicillin]
Klebsiella 63 [5]
  MIC: 32 U/ml
Proteus morg. 932
  MIC: 256 U/ml
Psdm. aerug. Walter
  MIC: 32 U/ml
Staph. aureus 133
  MIC: < 1 U/ml
Proteus vulg. 1017
  MIC: 32 U/ml
E. coli 183/58
  MIC: 8 U/ml
E. coli A 261
  MIC: > 256 U/ml
E. coli C 165
  MIC: 8 U/ml
E. coli 14 [9]
  MIC: < 1 U/ml
Enterococcus 9790
  MIC: 8 U/ml
Klebsiella K 10 [17]
  MIC: 32 U/ml
Psdm. aerug. F 41 [18]
  MIC: 32 U/ml
Staph. aureus 1756
  MIC: 64 U/ml
Klebsiella 63 [2]; [25]
  Surviving animals: 100%
Klebsiella 63 [2]; 2nd day after infection, experiment with Ex.7
  Surviving animals: 100%
Klebsiella 63 [2]; 3rd day after infection, experiment with Ex.7
  Surviving animals: 20%

## CC1(C)S[C@@H]2[C@H](NC(=O)[C@H](NC(=O)c3ccc(NC(=O)c4ccc(N)cc4)cc3)c3ccccc3)C(=O)N2[C@H]1C(=O)O [Example 29, sodium D(-)-α-[4-(4-aminobenzoylamino)-benzoylamino] -benzylpenicillin]
Klebsiella 63 [5]
  MIC: 64 U/ml
Proteus morg. 932
  MIC: > 256 U/ml
Psdm. aerug. Walter
  MIC: 32 U/ml
Staph. aureus 133
  MIC: < 1 U/ml
Proteus vulg. 1017
  MIC: 256 U/ml
E. coli 183/58
  MIC: 16 U/ml
E. coli A 261
  MIC: > 256 U/ml
E. coli C 165
  MIC: 4 U/ml
E. coli 14 [9]
  MIC: < 1 U/ml
Psdm. aerug. F 41 [1]; [20]
  Surviving animals: 100%
Psdm. aerug. F 41 [1]; [21]
  Surviving animals: 80%
Psdm. aerug. F 41 [1]; [22]
  Surviving animals: 70%
Psdm. aerug. F 41 [1]; [23]
  Surviving animals: 70%
Enterococcus 9790
  MIC: 4 U/ml
Klebsiella K 10 [17]
  MIC: 128 U/ml
Psdm. aerug. F 41 [18]
  MIC: ~ 32 U/ml
Staph. aureus 1756
  MIC: 32 U/ml

## CC1(C)S[C@@H]2[C@H](NC(=O)[C@H](NC(=O)c3ccc(NC=O)cc3)c3ccccc3)C(=O)N2[C@H]1C(=O)O [Example 41, Sodium D(-)-α -(4-formylamino-benzoylamino)-benzylpenicillin]
Klebsiella 63 [5]
  MIC: 128 U/ml
Psdm. aerug. Walter
  MIC: 64 U/ml
Staph. aureus 133
  MIC: < 1 U/ml
Proteus vulg. 1017
  MIC: 64 U/ml
E. coli 183/58
  MIC: 64 U/ml
E. coli A 261
  MIC: > 256 U/ml
E. coli C 165
  MIC: 32 U/ml
E. coli 14 [9]
  MIC: 8 U/ml
Enterococcus 9790
  MIC: 8 U/ml
Klebsiella K 10 [17]
  MIC: 128 U/ml
Psdm. aerug. F 41 [18]
  MIC: 32 U/ml
Staph. aureus 1756
  MIC: 32 U/ml
Klebsiella 63 [2]; [24]
  Surviving animals: 80%
Klebsiella 63 [2]; 2nd day after infection, experiment with Ex.41
  Surviving animals: 50%
Klebsiella 63 [2]; 3rd day after infection, experiment with Ex.41
  Surviving animals: 50%
Klebsiella 63 [2]; 5th day after infection, experiment with Ex.41
  Surviving animals: 50%
